Reference: paper PMC6017567, “Chemical Constituents from Apios americana and Their Inhibitory Activity on Tyrosinase” (Molecules : A Journal of Synthetic Chemistry and Natural …, 2018)
pKi: −log10 of the molar value. Like-named read-outs stand apart in the source and are kept apart here.

How the values were obtained:
[1] = biological target: T1, tyrosinase (Agaricus bisporus, UniProt C7FF04); parameters: method as in earlier work; details: ref 8 (Chang et al.); cited from earlier work
Target sequence in this assay (C7FF04 2-392): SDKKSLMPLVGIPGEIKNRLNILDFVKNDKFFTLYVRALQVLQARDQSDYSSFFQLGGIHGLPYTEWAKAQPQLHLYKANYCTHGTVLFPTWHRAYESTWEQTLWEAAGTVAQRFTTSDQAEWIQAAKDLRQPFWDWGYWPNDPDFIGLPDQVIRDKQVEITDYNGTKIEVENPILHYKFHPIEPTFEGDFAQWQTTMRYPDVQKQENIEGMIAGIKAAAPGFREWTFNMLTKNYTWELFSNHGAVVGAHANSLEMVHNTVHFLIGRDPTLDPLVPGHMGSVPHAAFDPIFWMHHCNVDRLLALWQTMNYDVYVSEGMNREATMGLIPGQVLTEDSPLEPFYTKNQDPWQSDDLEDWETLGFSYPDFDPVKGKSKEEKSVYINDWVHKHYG

[2] = biological target: T1, tyrosinase; format: biochemical; details: preincubated with enzyme
Target sequence in this assay (C7FF04 2-392): as above
Experimental: The amount of L-DOPA converted from L-tyrosine as substrate of this enzyme was quantified in the presence of each respective compound [7].
Briefly, tyrosinase (~45 U/mL, 130 µL) in 50 µM phosphate buffer (pH 6.8) was added to 96-well plates. Twenty microliters of each respective compound (1 mM) were dissolved in MeOH, and compounds 2 and 8 (diluted to 0.065 mM) were added. Finally, 50 µL 1.5 mM L-tyrosine were added as a substrate. After initiating the enzyme reaction at 37 °C, the products were measured using UV-Vis determination (wavelength, 475 nm) for 20 min. The inhibition ratio was calculated using the following Equation (3):Inhibitory activity (%) = [(Δcontrol − Δinhibitor)/Δcontrol] × 100(3)

[3] = biological target: T1, tyrosinase; experiment: Enzyme kinetics (Lineweaver-Burk and Dixon plots); format: biochemical; details: Lineweaver-Burk plot
Experimental: Enzyme kinetics are used to confirm the binding positions between an enzyme and inhibitor [7]. This study confirmed the effect of the substrate concentration on tyrosinase activity using four different concentrations. The initial velocity (vi) was calculated at steady-state. A Lineweaver–Burk plot was represented by 1/v versus 1/substrate in the presence of inhibitor according to enzyme kinetics theory. Their regression lines intersected the y-axis at the same point and the x-axis at different points.
Target sequence in this assay (C7FF04 2-392): as above

[4] = biological target: T1, tyrosinase; experiment: Slow-binding (time-dependent) inhibition kinetics; format: biochemical; parameters: purchased Sigma-Aldrich T3824; details: for Time dependence of interaction with tyrosinase: time-course enzyme assay
Experimental: These curves were calculated by the following Equation (1):(1) [P]=vst+vi−vs/kobs[1−exp(−kobst)] where [P] is the concentration of product from the catalytic reaction, and the first-order rate constant (kobs) is the slow-binding constant corresponding to vi and vs.
The plot of kobs versus [inhibitor, I] is represented in Figure 3B.
First, the initial enzyme–ligand complex (E·I) forms rapidly, and then the isomerized enzyme–ligand complex (E*·I) forms slowly. Using Equation (3), k3 , k4 , and Kiapp kinetic parameters were calculated as 0.0041 S^−1, 0.0004 S^−1, and 35.8 µM, respectively (Table 2).
Target sequence in this assay (C7FF04 1-392 limits assumed): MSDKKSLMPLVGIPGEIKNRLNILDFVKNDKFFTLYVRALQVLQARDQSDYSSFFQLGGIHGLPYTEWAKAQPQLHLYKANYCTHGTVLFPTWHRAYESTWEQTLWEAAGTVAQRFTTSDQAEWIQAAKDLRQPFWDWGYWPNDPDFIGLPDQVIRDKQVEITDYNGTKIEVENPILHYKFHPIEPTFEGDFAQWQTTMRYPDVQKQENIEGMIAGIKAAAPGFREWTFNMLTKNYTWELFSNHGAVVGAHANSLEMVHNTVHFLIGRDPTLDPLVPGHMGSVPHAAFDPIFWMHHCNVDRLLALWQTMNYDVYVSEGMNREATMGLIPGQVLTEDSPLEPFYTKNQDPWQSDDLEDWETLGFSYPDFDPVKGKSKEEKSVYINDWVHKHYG

[5] = time-dependent inhibition, kobs versus [I]

Compound | Binding Mode [1] | Increase of inhibitory activity by preincubation compared with IC50 in the absence of preincubation [2] [fold] | Binding Mode [3] | pKi [4] | Time dependence of interaction with tyrosinase [4] | k5 [4, 5] [S^−1] | k6 [4, 5] [S^−1]
O=c1c(-c2ccc(O)cc2)coc2cc(O)c(O)cc12 [6,7,4′-trihydroxyisolflavone] | competitive inhibitor |  |  |  |  |  | 
O=c1c2c(O)cc(O)cc2oc2oc3cc(O)ccc3c12 [compound 2, lupinalbin A] |  | 3 | Competitive | 4.45 | time-dependent manner | 0.0041 | 0.0004
O=c1c(-c2ccc(O)cc2O)coc2cc(O[C@@H]3O[C@H](CO[C@@H]4O[C@H](CO)[C@@H](O)[C@H](O)[C@H]4O)[C@@H](O)[C@H](O)[C@H]3O)cc(O)c12 [compound 8, 2′-hydroxygenistein-7-O-gentibioside] |  |  | Competitive |  | did not exhibit this pattern |  | 
